pEC50, pIC50, pKi: −log10 of the molar value.
Key:
[1] = molecular target: T1, Kappa-type opioid receptor (Homo sapiens, UniProt P41145); test: Displacement of [3H]U69,593 from human kappa opioid receptor expressed in CHO membrane; assay type: cell membranes
Mu-type opioid receptor [2] = molecular target: T2, Mu-type opioid receptor (Homo sapiens, UniProt P35372); test: Displacement of [3H]DAMGO from human mu opioid receptor expressed in CHO membrane; assay type: cell membranes
[3] = molecular target: T3, Delta-type opioid receptor (Homo sapiens, UniProt P41143); test: Displacement of [3H]naltrindole from human delta opioid receptor expressed in CHO membrane; assay type: cell membranes
T3 sequence (P41143 whole entry): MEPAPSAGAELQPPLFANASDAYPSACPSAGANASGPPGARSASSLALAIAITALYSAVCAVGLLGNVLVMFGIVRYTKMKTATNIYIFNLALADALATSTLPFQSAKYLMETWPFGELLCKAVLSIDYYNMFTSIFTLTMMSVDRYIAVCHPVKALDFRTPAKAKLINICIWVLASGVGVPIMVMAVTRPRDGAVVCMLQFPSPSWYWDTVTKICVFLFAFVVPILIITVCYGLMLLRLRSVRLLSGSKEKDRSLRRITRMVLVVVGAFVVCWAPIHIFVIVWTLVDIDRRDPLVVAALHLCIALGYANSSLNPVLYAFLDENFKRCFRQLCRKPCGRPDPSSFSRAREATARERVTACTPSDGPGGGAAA

[4] = molecular target: T3, Delta-type opioid receptor; test: Displacement of [3H]naltrindole from human delta opioid receptor expressed in CHO membrane at 10 uM; assay type: cell membranes
[5] = molecular target: T1, Kappa-type opioid receptor; test: Agonist activity at human kappa opioid receptor expressed in CHO cells assessed as stimulation of [35S]GTP-gamma-S binding relative to basal level after 60 mins; assay type: functional, cell-based
[6] = molecular target: T1, Kappa-type opioid receptor; test: Agonist activity at human kappa opioid receptor expressed in CHO cells assessed as stimulation of [35S]GTP-gamma-S binding after 60 mins; assay type: functional, cell-based
[7] = Displacement of [3H]naltrindole from human delta opioid receptor expressed in CHO membrane
Mu-type opioid receptor [8] = molecular target: T2, Mu-type opioid receptor; test: Agonist activity at human mu opioid receptor expressed in CHO cells assessed as stimulation of [35S]GTP-gamma-S binding after 60 mins; assay type: functional, cell-based
Mu-type opioid receptor [9] = molecular target: T2, Mu-type opioid receptor; test: Antagonist activity at human mu opioid receptor expressed in CHO cells assessed as inhibition of DAMGO-induced [35S]GTPgammaS binding after 60 mins; assay type: functional, cell-based
Mu-type opioid receptor [10] = molecular target: T2, Mu-type opioid receptor; test: Agonist activity at human mu opioid receptor expressed in CHO cells assessed as stimulation of [35S]GTP-gamma-S binding relative to basal level after 60 mins; assay type: functional, cell-based

T2 sequence (P35372 whole entry): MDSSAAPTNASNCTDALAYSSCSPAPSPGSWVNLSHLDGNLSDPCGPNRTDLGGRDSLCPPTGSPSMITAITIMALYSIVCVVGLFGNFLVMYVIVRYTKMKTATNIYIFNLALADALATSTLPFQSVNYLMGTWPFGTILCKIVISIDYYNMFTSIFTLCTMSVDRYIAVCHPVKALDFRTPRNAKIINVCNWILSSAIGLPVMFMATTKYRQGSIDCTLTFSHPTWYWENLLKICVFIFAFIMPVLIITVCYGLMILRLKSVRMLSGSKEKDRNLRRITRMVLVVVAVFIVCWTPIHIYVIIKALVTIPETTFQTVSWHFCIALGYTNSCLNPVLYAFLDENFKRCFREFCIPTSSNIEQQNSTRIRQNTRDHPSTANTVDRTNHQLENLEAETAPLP
T1 sequence (P41145 whole entry): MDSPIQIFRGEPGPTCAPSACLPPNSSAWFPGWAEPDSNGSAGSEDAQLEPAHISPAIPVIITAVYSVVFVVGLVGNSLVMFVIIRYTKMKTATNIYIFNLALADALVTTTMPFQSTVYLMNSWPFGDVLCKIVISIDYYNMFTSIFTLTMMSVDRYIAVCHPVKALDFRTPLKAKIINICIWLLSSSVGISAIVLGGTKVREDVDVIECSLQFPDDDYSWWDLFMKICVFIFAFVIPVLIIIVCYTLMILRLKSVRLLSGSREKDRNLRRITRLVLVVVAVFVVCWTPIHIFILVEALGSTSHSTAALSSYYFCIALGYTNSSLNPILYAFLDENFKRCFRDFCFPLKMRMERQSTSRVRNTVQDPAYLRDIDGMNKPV

| Structure (SMILES) | pKi [1] | pKi (Mu-type opioid receptor [2]) | pKi [3] | inhibition [4] [%] | Emax [5] [%] | pEC50 [6] | pKi [7] | pEC50 (Mu-type opioid receptor [8]) | pIC50 (Mu-type opioid receptor [9]) | Imax (Mu-type opioid receptor [9]) [%] | Emax (Mu-type opioid receptor [10]) [%] |
| --- | --- | --- | --- | --- | --- | --- | --- | --- | --- | --- | --- |
| CNC(=O)Nc1ccc2c(c1)[C@@]13CCCC[C@H]1[C@@H](C2)N(CC1CCC1)CC3 | 7.70 | 7.66 | 6.57 | – | – | – | – | – | – | – | – |
| O=c1[nH]c2cc3c(cc2o1)[C@@]12CCCC[C@H]1[C@@H](C3)N(CC1CC1)CC2 | 7.33 | 6.80 | – | 44 | – | – | – | – | – | – | – |
| Nc1nc2cc3c(cc2o1)[C@@]12CCCC[C@H]1[C@@H](C3)N(CC1CCC1)CC2 | 8.18 | 7.40 | – | 46 | – | – | – | – | – | – | – |
| CNC(=O)Nc1ccc2c(c1)[C@@]13CCCC[C@H]1[C@@H](C2)N(CC1CC1)CC3 | 8.64 | 7.92 | 7.30 | – | 67 | 8.08 | – | – | – | – | – |
| Nc1nc2cc3c(cc2o1)[C@@]12CCCC[C@H]1[C@@H](C3)N(CC1CC1)CC2 | 7.28 | 6.82 | – | 18 | – | – | – | – | – | – | – |
| Nc1ccc2c(c1)[C@@]13CCCC[C@H]1[C@@H](C2)N(CC1CC1)CC3 | 9.74 | 8.89 | – | – | – | – | 6.82 | – | – | – | – |
| NC(=O)Nc1ccc2c(c1)[C@@]13CCCC[C@H]1[C@@H](C2)N(CC1CCC1)CC3 | 8.05 | 8.49 | 6.80 | – | 64 | 7.06 | – | 7.20 | 5.82 | 35 | 33 |
| NC(=O)Nc1ccc2c(c1)[C@@]13CCCC[C@H]1[C@@H](C2)N(CC1CC1)CC3 | 9.21 | 8.85 | 7.64 | – | 84 | 7.48 | – | 7.51 | 6.42 | 52 | 21 |
| O=c1[nH]c2cc3c(cc2o1)[C@@]12CCCC[C@H]1[C@@H](C3)N(CC1CCC1)CC2 | 8.72 | 8.24 | 6.44 | – | – | – | – | – | – | – | – |
| Nc1ccc2c(c1)[C@@]13CCCC[C@H]1[C@@H](C2)N(CC1CCC1)CC3 | – | – | – | – | – | – | 6.74 | – | – | – | – |

From ChEMBL document CHEMBL1147995, “In-vitro investigation of oxazol and urea analogues of morphinan at opioid receptors” (Bioorg Med Chem, 2007)
